What follows are compounds tested against T1, human GPR40 (Homo sapiens, UniProt O14842) (assay: Evaluation of human GPR40 agonist activity with increase in intracellular Ca2+ concentration as an index (FLIPR Tetra)). Conditions: test compound 1 μM; CHO(dhfr-) cells stably expressing human GPR40; 100% = activity of 1 μM WO2009/048527 Example 99.2, 0% = DMSO.
T1 construct: expressed in transfected cells
Format: cell-based
Description: Evaluation of human GPR40 agonist activity with increase in intracellular Ca^2+ concentration as an index
CHO(dhfr-) cells that stably expressed human GPR40 were suspended in MEMα (Nikken Bio Medical Laboratory) containing 10% dialysis serum (GEMINI BIO-PRODUCTS), 10 mM HEPES (Invitrogen), 100 U/mL penicillin, 100 μg/mL streptomycin (Invitrogen), and plated on a 384 well black/clear cell culture plate at 10,000 cells/well. After culture overnight in a CO2 incubator at 37° C., the culture supernatant was removed, and a loading buffer [dye attached to Calcium 5 Assay Kit (Molecular Devices) was dissolved in an assay buffer (20 mM HEPES, 0.2% fatty acid-free BSA (Sigma-Aldrich), 2.5 mM probenecid (DOJINDO)-containing HBSS (Invitrogen)) added with 0.025% Cremophor EL (DOJINDO)] was added at 37.5 μL/well. After incubation in a CO2 incubator at 37° C. for 1 hr, the cells were stood at room temperature for 15 min, an assay buffer containing the test compound at a final concentration of 1 μM was added at 12.5 μL/well in FLIPR Tetra (Molecular Devices), and the fluorescence amount was successively measured. Human GPR40 agonist activity calculated using an increase in the intracellular Ca^2+ concentration as an index, wherein the activity of 1 μM of the compound described in WO 2009/048527 (WO2009/048527 Example 99.2) was 100%, and the activity when DMSO was added instead of the test compound was 0%.

T1 sequence (O14842 whole entry): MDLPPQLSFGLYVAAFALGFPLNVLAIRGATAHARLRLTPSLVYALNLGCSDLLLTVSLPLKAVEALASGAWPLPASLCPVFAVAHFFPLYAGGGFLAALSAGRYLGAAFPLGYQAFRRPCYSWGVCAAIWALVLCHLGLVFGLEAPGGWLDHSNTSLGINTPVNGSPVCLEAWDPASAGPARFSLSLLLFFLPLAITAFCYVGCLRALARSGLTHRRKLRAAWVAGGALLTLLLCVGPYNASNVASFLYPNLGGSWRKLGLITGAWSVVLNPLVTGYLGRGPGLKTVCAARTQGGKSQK

Row | SMILES | Human GPR40 agonist activity (increase in intracellular Ca2+ concentration) [%] | activation at 1 µM [%]
1 | COc1ccc(F)c(-c2ccc(OCc3cccc(C(CC(=O)O)C4CC4C#N)c3)cc2CC(C)(C)C)c1 (stereo not shown) [Example 88, 3-(2-cyanocyclopropyl)-3-(3-(((2′-fluoro-5′-methoxy-2-neopentyl-[1,1′-biphenyl]-4-yl)oxy)methyl)phenyl)propanoic acid] | 112 | –
2 | COc1ccc(F)c(-c2ccc(OCc3cccc(C(CC(=O)O)C4CC4)c3)cc2C(F)C2(C#N)CCCC2)c1 (stereo not shown) [Example 101, 3-(3-(((2-((1-cyanocyclopentyl)(fluoro)methyl)-2′-fluoro-5′-methoxybiphenyl-4-yl)oxy)methyl)phenyl)-3-cyclopropylpropanoic acid] | – | 106
3 | CCCCCOc1ccc(F)c(-c2ncc(OCc3cccc(C(CC(=O)O)C4CC4)c3)cc2CC(C)(C)C)c1 (stereo not shown) [Example 71, 3-cyclopropyl-3-(3-(((5-(2,2-dimethylpropyl)-6-(2-fluoro-5-(pentyloxy)phenyl)pyridin-3-yl)oxy)methyl)phenyl)propanoic acid] | – | 1
4 | CC(C)(C)Cc1cc(OCc2cccc(C(CC(=O)O)C3CC3)c2)cnc1-c1ccc(OC(F)(F)F)cc1 (stereo not shown) [Example 61, 3-cyclopropyl-3-(3-(((5-(2,2-dimethylpropyl)-6-(4-(trifluoromethoxy)phenyl)pyridin-3-yl)oxy)methyl)phenyl)propanoic acid] | – | 8
5 | CC(C)(C)Cc1cc(OCc2cccc(C(CC(=O)O)C3CC3)c2)cnc1-c1cc(OC2CCCCO2)ccc1F (stereo not shown) [Example 44, 3-cyclopropyl-3-(3-(((5-(2,2-dimethylpropyl)-6-(2-fluoro-5-(tetrahydro-2H-pyran-2-yloxy)phenyl)pyridin-3-yl)oxy)methyl)phenyl)propanoic acid] | – | 3
6 | COc1ccc(-c2ncc(OCc3cccc(C(CC(=O)O)C4CC4)c3)cc2CC(C)(C)C)cc1OC (stereo not shown) [Example 54, 3-cyclopropyl-3-(3-(((6-(3,4-dimethoxyphenyl)-5-(2,2-dimethylpropyl)pyridin-3-yl)oxy)methyl)phenyl)propanoic acid] | – | 3
7 | COc1cccc(-c2ncc(OCc3cccc(C(CC(=O)O)C4CC4)c3)cc2CC(C)(C)C)c1 (stereo not shown) [Example 46, 3-cyclopropyl-3-(3-(((5-(2,2-dimethylpropyl)-6-(3-methoxyphenyl)pyridin-3-yl)oxy)methyl)phenyl)propanoic acid] | – | 117
8 | COc1ccc(F)c(-c2ccc(SCc3cccc(C(CC(=O)O)C4CC4)c3)cc2CC(C)(C)C)c1 (stereo not shown) [Example 12, 3-cyclopropyl-3-(3-(((2-(2,2-dimethylpropyl)-2′-fluoro-5′-methoxybiphenyl-4-yl)sulfanyl)methyl)phenyl)propanoic acid] | – | 113
9 | COc1ccc(F)c(-c2ccc(OCc3cccc(C(C#CC4CC4)CC(=O)O)c3)cc2CC(C)(C)C)c1 (stereo not shown) [Example 77, 5-cyclopropyl-3-(3-(((2′-fluoro-5′-methoxy-2-neopentyl-[1,1′-biphenyl]-4-yl)oxy)methyl)phenyl)pent-4-ynoic acid] | – | 101
10 | COc1ccc(F)c(-c2ccc(OCc3cc(C(CC(=O)O)C4CC4)ccn3)nc2CC(C)(C)C)c1 (stereo not shown) [Example 25, 3-cyclopropyl-3-(2-(((6-(2,2-dimethylpropyl)-5-(2-fluoro-5-methoxyphenyl)pyridin-2-yl)oxy)methyl)pyridin-4-yl)propanoic acid] | – | 108
11 | COc1ccc(F)c(-c2ccc(OCc3cccc(C(CC(=O)O)C4CC4)c3)cc2C(O)C(C)(C)C)c1 (stereo not shown) [Example 95] | – | 107
12 | CCC(CC(=O)O)c1cccc(COc2ccc(-c3cc(OC)ccc3F)c(CC(C)(C)C)c2)c1 (stereo not shown) [Example 80, 3-(3-(((2′-fluoro-5′-methoxy-2-neopentyl-[1,1′-biphenyl]-4-yl)oxy)methyl)phenyl)pentanoic acid] | – | 94

Other lines, results leading:

Row | Human GPR40 agonist activity (increase in intracellular Ca2+ concentration) [%] | activation at 1 µM [%] | SMILES
13 | – | 106 | COc1ccc(F)c(-c2ccc(N(Cc3cccc(C(CC(=O)O)C4CC4)c3)CC(F)(F)F)cc2CC(C)(C)C)c1 (stereo not shown) [Example 11, 3-cyclopropyl-3-(3-(((2-(2,2-dimethylpropyl)-2′-fluoro-5′-methoxybiphenyl-4-yl)(2,2,2-trifluoroethyl)amino)methyl)phenyl)propanoic acid]
14 | – | 94 | CCC(C)(C)C(OCCOC)c1cc(OCc2cccc(C(CC(=O)O)C3CC3)c2)ccc1-c1cc(OC)ccc1F (stereo not shown) [Example 110, 3-cyclopropyl-3-(3-(((2′-fluoro-5′-methoxy-2-(1-(2-methoxyethoxy)-2,2-dimethylbutyl)biphenyl-4-yl)oxy)methyl)phenyl)propanoic acid]
15 | – | 96 | COc1ccc(F)c(-c2ccc(OCc3cccc(C(CC(=O)O)C(F)(F)C(F)(F)F)c3)cc2CC(C)(C)C)c1 (stereo not shown) [Example 85, 4,4,5,5,5-pentafluoro-3-(3-(((2′-fluoro-5′-methoxy-2-neopentyl-[1,1′-biphenyl]-4-yl)oxy)methyl)phenyl)pentanoic acid]
16 | – | 92 | Cc1cccc(-c2ncc(OCc3cccc(C(CC(=O)O)C4CC4)c3)cc2CC(C)(C)C)c1 (stereo not shown) [Example 47, 3-cyclopropyl-3-(3-(((5-(2,2-dimethylpropyl)-6-(3-methylphenyl)pyridin-3-yl)oxy)methyl)phenyl)propanoic acid]
17 | – | 119 | CCC(C)(C)C(OC)c1cc(OCc2cccc(C(CC(=O)O)C3CC3)c2)ccc1-c1cc(OC)ccc1F (stereo not shown) [Example 109, 3-cyclopropyl-3-(3-(((2′-fluoro-5′-methoxy-2-(1-methoxy-2,2-dimethylbutyl)biphenyl-4-yl)oxy)methyl)phenyl)propanoic acid]
18 | – | 96 | COc1ccc(F)c(-c2ccc(OCc3cccc(C(CC(=O)O)C4CC4)c3)cc2C(C)C(C)(C)C)c1 (stereo not shown) [Example 98, 3-cyclopropyl-3-(3-(((2-(3,3-dimethylbutan-2-yl)-2′-fluoro-5′-methoxybiphenyl-4-yl)oxy)methyl)phenyl)propanoic acid]
19 | – | 103 | COc1ccc(F)c(-c2ccc(N(C)Cc3cccc(C(CC(=O)O)C4CC4)c3)cc2CC(C)(C)C)c1 (stereo not shown) [Example 9, 3-cyclopropyl-3-(3-(((2-(2,2-dimethylpropyl)-2′-fluoro-5′-methoxybiphenyl-4-yl)(methyl)amino)methyl)phenyl)propanoic acid]
20 | 107 | – | COc1ccc(F)c(-c2ccc(OCc3cccc(C(CC(=O)O)C4CC4C#N)c3)cc2CC(C)(C)C)c1 (stereo not shown) [Example 90, 3-(2-cyanocyclopropyl)-3-(3-(((2′-fluoro-5′-methoxy-2-neopentyl-[1,1′-biphenyl]-4-yl)oxy)methyl)phenyl)propanoic acid]
21 | – | 91 | COc1ccc(F)c(-c2ccc(OCc3cccc(C(CC(=O)O)C4CC4)c3)cc2-c2nnc(C(F)(F)F)s2)c1 (stereo not shown) [Example 75, 3-cyclopropyl-3-(3-(((2′-fluoro-5′-methoxy-2-(5-(trifluoromethyl)-1,3,4-thiadiazol-2-yl)-[1,1′-biphenyl]-4-yl)oxy)methyl)phenyl)propanoic acid]
22 | – | 116 | CCOc1ccc(F)c(-c2ncc(OCc3cccc(C(CC(=O)O)C4CC4)c3)cc2CC(C)(C)C)c1 (stereo not shown) [Example 68, 3-cyclopropyl-3-(3-(((5-(2,2-dimethylpropyl)-6-(5-ethoxy-2-fluorophenyl)pyridin-3-yl)oxy)methyl)phenyl)propanoic acid]
23 | – | 108 | COc1ccc(F)c(-c2ccc(OCc3cccc(OCC(=O)O)c3)cc2CC(C)(C)C)c1 [Example 2, (3-(((2-(2,2-dimethylpropyl)-2′-fluoro-5′-methoxybiphenyl-4-yl)oxy)methyl)phenoxy)acetic acid]
24 | – | 93 | COc1ccc(F)c(-c2ccc(OCc3cccc(C(CC(=O)O)C4CC4)c3)cc2CC2(C#N)CCCCC2)c1 (stereo not shown) [Example 99, 3-(3-(((2-((1-cyanocyclohexyl)methyl)-2′-fluoro-5′-methoxybiphenyl-4-yl)oxy)methyl)phenyl)-3-cyclopropylpropanoic acid]
25 | – | 96 | CCC(C)(C)Cc1cc(OCc2cccc(C(CC(=O)O)C3CC3)c2)ccc1-c1cc(OC)ccc1F (stereo not shown) [Example 106, 3-cyclopropyl-3-(3-(((2-(2,2-dimethylbutyl)-2′-fluoro-5′-methoxybiphenyl-4-yl)oxy)methyl)phenyl)propanoic acid]
26 | – | 101 | COc1ccc(F)c(-c2ccc(OCc3cccc(C(CC(=O)O)C4CC4)c3)cc2CC2(C#N)CCCC2)c1 (stereo not shown) [Example 41, 3-(3-(((2-((1-cyanocyclopentyl)methyl)-2′-fluoro-5′-methoxybiphenyl-4-yl)oxy)methyl)phenyl)-3-cyclopropylpropanoic acid]
27 | – | 115 | COc1ccc(Cl)c(-c2ncc(OCc3cccc(C(CC(=O)O)C4CC4)c3)cc2CC(C)(C)C)c1 (stereo not shown) [Example 59, 3-(3-(((6-(2-chloro-5-methoxyphenyl)-5-(2,2-dimethylpropyl)pyridin-3-yl)oxy)methyl)phenyl)-3-cyclopropylpropanoic acid]
28 | – | 105 | CCC1(Cc2cc(OCc3cccc(C(CC(=O)O)C4CC4)c3)ccc2-c2cc(OC)ccc2F)CCCC1 (stereo not shown) [Example 100, 3-cyclopropyl-3-(3-(((2-((1-ethylcyclopentyl)methyl)-2′-fluoro-5′-methoxybiphenyl-4-yl)oxy)methyl)phenyl)propanoic acid]

From patent US9382188B2, “Aromatic ring compound” (TAKEDA PHARMACEUTICAL COMPANY LIMITED, priority 2012, dated 2016)
